In BindingDB's records for doi:10.1074/jbc.M113.487777 (McGill University, 2013):

Biological target: T1, Inositol-pentakisphosphate 2-kinase (Mouse-ear cress, UniProt Q93YN9)
T1 sequence (Q93YN9 whole entry): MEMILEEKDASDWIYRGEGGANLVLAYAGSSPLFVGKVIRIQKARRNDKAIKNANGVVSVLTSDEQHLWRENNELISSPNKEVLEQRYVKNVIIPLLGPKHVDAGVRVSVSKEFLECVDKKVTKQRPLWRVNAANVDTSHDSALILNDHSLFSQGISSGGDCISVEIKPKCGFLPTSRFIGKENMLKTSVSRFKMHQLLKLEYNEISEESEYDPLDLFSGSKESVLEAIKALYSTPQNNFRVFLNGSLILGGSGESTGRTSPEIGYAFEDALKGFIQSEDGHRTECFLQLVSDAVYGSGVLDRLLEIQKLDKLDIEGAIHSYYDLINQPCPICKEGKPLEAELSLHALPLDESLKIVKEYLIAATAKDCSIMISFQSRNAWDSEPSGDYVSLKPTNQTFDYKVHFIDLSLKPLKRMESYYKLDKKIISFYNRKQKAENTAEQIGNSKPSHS
Assay: Isothermal Titration Calorimetry (ITC)
Conditions: pH 7.5; 25 °C
Protocol: Experiments were performed on a MicroCal iTC200 titration calorimeter (GE Healthcare). Wild-type IPK1 was purified and dialyzed into ITC buffer containing 50 mM HEPES (pH 7.5), 6 mM MgCl2, 150 mM NaCl, and 1 mM tris(2-carboxyethyl)phosphine (pH 7.0). After protein dialysis was complete, dialysis buffer was used to dissolve the ligands, IP, and AMP-PNP (Jena Bioscience). Titration experiments were performed at 25 °C with 100 uM IPK1 and1mM AMP-PNP in the cell and 1-2 mM IP in the syringe to ensure a final IP:IPK1 molar ratio of at least 2:1. Titration experiments were performed at least twice for each IP, and one set was chosen to represent data.

| Compound | Kd |
| --- | --- |
| O=P(O)(O)O[C@H]1[C@H](O)[C@@H](OP(=O)(O)O)[C@H](OP(=O)(O)O)[C@@H](OP(=O)(O)O)[C@H]1O [1,3,4,5-Inositol tetrakisphosphate (1,3,4,5-IP4)] | 18.2 µM |
| O=P(O)(O)O[C@@H]1[C@@H](OP(=O)(O)O)[C@H](OP(=O)(O)O)[C@H](O)[C@H](OP(=O)(O)O)[C@H]1OP(=O)(O)O [Inositol 1,3,4,5,6-pentakisphosphate (IP5)] | 0.6 µM |
| O=P(O)(O)O[C@@H]1[C@@H](OP(=O)(O)O)[C@H](OP(=O)(O)O)[C@@H](O)[C@@H](O)[C@H]1OP(=O)(O)O [1,4,5,6-Inositol tetrakisphosphate (1,4,5,6-IP4)] | 8.2 µM |
| O=P(O)(O)O[C@H]1[C@H](OP(=O)(O)O)[C@@H](OP(=O)(O)O)[C@@H](O)[C@@H](O)[C@@H]1OP(=O)(O)O [3,4,5,6-Inositol tetrakisphosphate (3,4,5,6-IP4)] | 7.52 µM |
| O=P(O)(O)O[C@@H]1[C@@H](O)[C@H](OP(=O)(O)O)[C@@H](OP(=O)(O)O)[C@@H](O)[C@H]1OP(=O)(O)O [1,3,4,6-Inositol tetrakisphosphate (1,3,4,6-IP4)] | 26.9 µM |
